According to patent US20050282755A1, “Compositions having antimicrobial activity and uses thereof” (priority 2004, published 2005):
Converted amounts (≈) assume the structure as drawn. Non-standard residues stand in square brackets, D forms with d. Residues, ends and D or L forms follow the SMILES beside them. *: point of attachment. Lauroyl = CCCCCCCCCCCC(=O)*; Decanoyl = CCCCCCCCCC(=O)*; Hexanoyl = CCCCCC(=O)*

Key:
Type in all cases: cell-based
[1] = system: Propionibacterium acnes ATCC 6919; test: MIC, agar dilution method NCCLS M11-A6, Brucella agar, anaerobic (Table 9, superscript c); details: ATCC 6919
Method: A bacterial suspension was prepared to allow for a final inoculum on the plate of 1.5×10^8 CFU/milliliter. After the suspension absorbed into the agar surface, the plates were incubated for 48-96 hours at 37° C. in a GasPak anaerobic chamber. The lowest concentration of peptide that contained no colony growth on the agar plate was determined as the MIC. MIC values that utilized this method of MIC determination are indicated in Table 9 with a superscript letter “c.”

[2] = system: Staphylococcus aureus ATCC 29213; test: MIC, NCCLS M7-A6 broth microdilution, cation-adjusted Mueller Hinton broth (Table 9, no superscript); details: ATCC 29213
In short: (§1)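 Log-phase bacteria were added to wells containing peptide in cation-adjusted Mueller Hinton broth at a final 5×10^5 to 1×10^6 CFU/milliliter. Plates then sat overnight at 37° C. Wells were scored visually for turbidity against a peptide-free control.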

[3] = system: Salmonella dublin (Lane); test: MIC, NCCLS M7-A6 broth microdilution (Table 9, no superscript)
In short: as §1

[4] = system: Escherichia coli ATCC 25922; test: as above; details: ATCC 25922
In short: as §1

[5] = system: Pseudomonas aeruginosa ATCC 27853; test: as above; details: ATCC 27853
In short: as §1

[6] = system: Staphylococcus epidermidis ATCC 12228; test: as above; details: ATCC 12228
In short: as §1

[7] = system: Candida albicans ATCC 18804; test: MIC in yeasts, NCCLS M27-A2 broth microdilution, RPMI 1640 (Table 9, letter e); details: ATCC 18804
Method: Briefly, RPMI 1640 supplemented with glutamine and phenol red as a pH indicator was used in the broth microdilution method. A 96-well plate was inoculated so that the final inoculum of yeast for each well contained between 0.5×10^3 and 2.5×10^3 CFU/milliliter. […] Plates were incubated for 24 to 48 hours at 37° C. The lowest concentration of peptide that contained no visible growth was determined as the MIC. MIC values that utilized this method of MIC determination are indicated in Table 9 with a subscript letter “e.” “Peptide Number” corresponds to peptide compositions and corresponding designations in Table 3.

Compound	MIC P. acnes [1]	MIC S. aureus [2] [µg/mL]	MIC S. dublin [3] [µg/mL]	MIC E. coli [4] [µg/mL]	MIC P. aeruginosa [5] [µg/mL]	MIC S. epidermidis [6] [µg/mL]	MIC C. albicans [7] [e ug/mL]
Lauryl-rsrwrdvarfm-NH2 [Peptide 115]	4c ug/mL	–	–	–	–	–	–
CCCCCC(=O)N[C@@H](CCCNC(=N)N)C(=O)N[C@@H](CO)C(=O)N[C@@H](CCCNC(=N)N)C(=O)N[C@@H](Cc1c[nH]c2ccccc12)C(=O)N[C@@H](CCCNC(=N)N)C(=O)N[C@@H](CC(=O)O)C(=O)N[C@H](C(=O)N[C@@H](C)C(=O)N[C@@H](CCCNC(=N)N)C(=O)N[C@@H](CC(N)=O)C(=O)N[C@@H](Cc1ccccc1)C(=O)N[C@@H](CCSC)C(=O)N[C@@H](CCCNC(=N)N)C(N)=O)C(C)C [Peptide 202, Hexyl-RSRWRDVARNFMR-NH2] (Hexanoyl-RSRWRDVARNFMR-NH2)	>64c ug/mL	>64	>64	–	–	–	–
CCCCCCCCCCCC(=O)N[C@@H](CCCNC(=N)N)C(=O)N[C@@H](CO)C(=O)N[C@@H](CCCNC(=N)N)C(=O)N[C@@H](Cc1c[nH]c2ccccc12)C(=O)N[C@@H](CCCNC(=N)N)C(=O)N[C@@H](CC(=O)O)C(=O)N[C@@H](Cc1c[nH]c2ccccc12)C(=O)N[C@@H](C)C(=O)N[C@@H](CCCNC(=N)N)C(=O)N[C@@H](CC(N)=O)C(=O)N[C@@H](Cc1c[nH]c2ccccc12)C(=O)N[C@@H](CCSC)C(=O)N[C@@H](CCCNC(=N)N)C(=O)N[C@@H](CC(C)C)C(=O)N[C@@H](CC(C)C)C(N)=O [Peptide 146, Lauryl-RSRWRDWARNWMRLL-NH2] (Lauroyl-RSRWRDWARNWMRLL-NH2)	–	64 (≈ 28 µM)	64 (≈ 28 µM)	>64	>64	4 (≈ 1.75 µM)	2
CCCCCCCCCCCC(=O)N[C@@H](CCCNC(=N)N)C(=O)N[C@@H](CO)C(=O)N[C@@H](CCCNC(=N)N)C(=O)N[C@@H](Cc1c[nH]c2ccccc12)C(=O)N[C@@H](CCCNC(=N)N)C(=O)N[C@@H](CC(=O)O)C(=O)N[C@H](C(N)=O)C(C)C [Peptide 103, Lauryl-RSRWRDV-NH2] (Lauroyl-RSRWRDV-NH2)	–	>32	>64	>64	>64	64 (≈ 55.4 µM)	>64
CCCCCCCCCCCC(=O)N[C@@H](CCCNC(=N)N)C(=O)N[C@@H](CO)C(=O)N[C@@H](CCCNC(=N)N)C(=O)N[C@@H](Cc1c[nH]c2ccccc12)C(=O)N[C@@H](CCCNC(=N)N)C(=O)N[C@@H](CC(=O)O)C(=O)N[C@@H](Cc1c[nH]c2ccccc12)C(=O)N[C@@H](C)C(=O)N[C@@H](CCCNC(=N)N)C(=O)N[C@@H](CC(N)=O)C(=O)N[C@@H](Cc1c[nH]c2ccccc12)C(=O)N[C@@H](CCSC)C(=O)N[C@@H](CCCNC(=N)N)C(=O)N[C@@H](Cc1c[nH]c2ccccc12)C(=O)N[C@@H](Cc1c[nH]c2ccccc12)C(N)=O [Peptide 145, Lauryl-RSRWRDWARNWMRWW-NH2] (Lauroyl-RSRWRDWARNWMRWW-NH2)	–	>64	>64	>64	>64	16 (≈ 6.58 µM)	2
CCCCCCCCCCCC(=O)N[C@H](CCCNC(=N)N)C(=O)N[C@H](CO)C(=O)N[C@H](CCCNC(=N)N)C(=O)N[C@H](Cc1c[nH]c2ccccc12)C(=O)N[C@H](CCCNC(=N)N)C(=O)N[C@H](CC(=O)O)C(=O)N[C@@H](C(=O)N[C@H](C)C(N)=O)C(C)C [Peptide 119, Lauryl-rsrwrdva-NH2] (Lauroyl-[dR][dS][dR][dW][dR][dD][dV][dA]-NH2)	–	32 (≈ 26.1 µM)	64 (≈ 52.2 µM)	64 (≈ 52.2 µM)	32 (≈ 26.1 µM)	16 (≈ 13 µM)	16
CCCCCCCCCCCC(=O)N[C@H](Cc1c[nH]c2ccccc12)C(=O)N[C@H](CCCNC(=N)N)C(=O)N[C@H](CC(=O)O)C(=O)N[C@@H](C(=O)N[C@H](C)C(=O)N[C@H](CCCNC(=N)N)C(=O)N[C@H](CC(N)=O)C(N)=O)C(C)C [Peptide 123, Lauryl-wrdvarn-NH2] (Lauroyl-[dW][dR][dD][dV][dA][dR][dN]-NH2)	–	>64	>64	>64	>64	64 (≈ 58.3 µM)	64
CCCCCCCCCCCC(=O)N[C@@H](C(=O)N[C@H](C)C(=O)N[C@H](CCCNC(=N)N)C(=O)N[C@H](CC(N)=O)C(=O)N[C@H](Cc1ccccc1)C(=O)N[C@H](CCSC)C(=O)N[C@H](CCCNC(=N)N)C(N)=O)C(C)C [Peptide 126, Lauryl-varnfmr-NH2] (Lauroyl-[dV][dA][dR][dN][dF][dM][dR]-NH2)	–	>64	>64	>64	>64	>64	8
CCCCCCCCCCCC(=O)N[C@@H](CCCNC(=N)N)C(=O)N[C@@H](CO)C(=O)N[C@@H](CCCNC(=N)N)C(=O)N[C@@H](Cc1c[nH]c2ccccc12)C(=O)N[C@@H](CCCNC(=N)N)C(=O)N[C@@H](CC(=O)O)C(=O)N[C@@H](Cc1c[nH]c2ccccc12)C(=O)N[C@@H](C)C(=O)N[C@@H](CCCNC(=N)N)C(=O)N[C@@H](CC(N)=O)C(=O)N[C@@H](Cc1c[nH]c2ccccc12)C(=O)N[C@@H](CCSC)C(=O)N[C@@H](CCCNC(=N)N)C(=O)N[C@@H](Cc1c[nH]c2ccccc12)C(N)=O [Peptide 144, Lauryl-RSRWRDWARNWMRW-NH2] (Lauroyl-RSRWRDWARNWMRW-NH2)	–	32 (≈ 14.3 µM)	64 (≈ 28.5 µM)	>64	>64	8 (≈ 3.57 µM)	32
CCCCCCCCCC(=O)N[C@H](CCCNC(=N)N)C(=O)N[C@H](CO)C(=O)N[C@H](CCCNC(=N)N)C(=O)N[C@H](Cc1c[nH]c2ccccc12)C(=O)N[C@H](CCCNC(=N)N)C(=O)N[C@H](CC(=O)O)C(=O)N[C@@H](C(=O)N[C@H](C)C(=O)N[C@H](CCCNC(=N)N)C(=O)N[C@H](CC(N)=O)C(=O)N[C@H](Cc1ccccc1)C(=O)N[C@H](CC(C)C)C(=O)N[C@H](CCCNC(=N)N)C(N)=O)C(C)C [Peptide 190, Decanyl-rsrwrdvarnflr-NH2] (Decanoyl-[dR][dS][dR][dW][dR][dD][dV][dA][dR][dN][dF][dL][dR]-NH2)	4 µg/mL (≈ 2.12 µM)	8 (≈ 4.24 µM)	–	4 (≈ 2.12 µM)	8 (≈ 4.24 µM)	2 (≈ 1.06 µM)	–
CCCCCCCCCCCC(=O)N[C@@H](CCCNC(=N)N)C(=O)N[C@@H](CO)C(=O)N[C@@H](CCCNC(=N)N)C(=O)N[C@@H](Cc1c[nH]c2ccccc12)C(=O)N[C@@H](CCCNC(=N)N)C(=O)N[C@@H](CC(=O)O)C(=O)N[C@@H](Cc1c[nH]c2ccccc12)C(=O)N[C@@H](Cc1c[nH]c2ccccc12)C(=O)N[C@@H](CCCNC(=N)N)C(=O)N[C@@H](CC(N)=O)C(=O)N[C@@H](Cc1c[nH]c2ccccc12)C(=O)N[C@@H](CCSC)C(=O)N[C@@H](CCCNC(=N)N)C(N)=O [Peptide 147, Lauryl-RSRWRDWWRNWMR-NH2] (Lauroyl-RSRWRDWWRNWMR-NH2)	–	64 (≈ 29.5 µM)	64 (≈ 29.5 µM)	64 (≈ 29.5 µM)	>64	2 (≈ 0.921 µM)	2
CCCCCCCCCCCC(=O)N[C@@H](CCCNC(=N)N)C(=O)N[C@@H](CO)C(=O)N[C@@H](CCCNC(=N)N)C(=O)N[C@@H](Cc1c[nH]c2ccccc12)C(=O)N[C@@H](CCCNC(=N)N)C(=O)N[C@@H](CC(=O)O)C(=O)N[C@H](C(=O)N[C@@H](C)C(=O)N[C@@H](CCCNC(=N)N)C(=O)N[C@@H](CC(N)=O)C(=O)N[C@@H](Cc1ccccc1)C(=O)N[C@@H](CCSC)C(=O)N[C@@H](CCCNC(=N)N)C(=O)N[C@@H](Cc1c[nH]c2ccccc12)C(=O)N[C@@H](Cc1c[nH]c2ccccc12)C(N)=O)C(C)C [Peptide 142, Lauryl-RSRWRDVARNFMRWW-NH2] (Lauroyl-RSRWRDVARNFMRWW-NH2)	–	64 (≈ 27.8 µM)	>64	64 (≈ 27.8 µM)	>64	8 (≈ 3.47 µM)	4
